These results are taken from ChEMBL document CHEMBL5143607, “Discovery and structure-activity relationships of a novel oxazolidinone class of bacterial type II topoisomerase inhibitors” (Bioorg Med Chem Lett, 2022).

Converted amounts (≈) assume the structure as drawn. Where only a bound is given, the exact number is not on record here.

By MIC90 is commonly meant the lowest concentration that inhibits either 90% of growth or 90% of the strains tested, depending on the study. Broadly, the MIC is the lowest concentration that inhibits growth of the organism. A word on the logD: it is lipophilicity at a set pH, counting ionised and neutral species. A high value points to a more lipophilic compound. As usually defined, the IC50 is the concentration needed to halve the response being measured.

The subject of data set [1] is Acinetobacter baumannii. Nature of the data set: In vivo antibacterial activity against multidrug resistant Acinetobacter baumannii NCTC 13420 infected in mouse thigh infection model assessed as log change in bacterial burden at 20 mg/kg, iv administered at 1 hr post infection and measured after 8 hrs relative to control. The data set is classed as functional.
Data set [2] relates to Acinetobacter baumannii. Nature of the data set: In vivo antibacterial activity against multidrug resistant Acinetobacter baumannii NCTC 13420 infected in mouse thigh infection model assessed in reduction in bacterial burden at 20 mg/kg, iv administered at 1 hr post infection and measured after 8 hrs (reference value: 5.4 log10CFU/g). The data set is classed as functional.

Data set [3] relates to Pseudomonas aeruginosa. The experiment in a line: Antibacterial activity against Pseudomonas aeruginosa clinical isolate 42 assessed as bacterial growth inhibition by CLSI protocol based assay. It is filed as functional.
Data set [4] has as its system Pseudomonas aeruginosa. Nature of the data set: Antibacterial activity against Pseudomonas aeruginosa ATCC 27853 assessed as bacterial growth inhibition by CLSI protocol based assay. The data set is classed as functional.
Data set [5] is described as follows: Lipophilicity, logD of the compound by shake flask assay. It is filed as physicochemical. The note with it: octanol/water.
In data set [6] the test system is Acinetobacter baumannii. Nature of the data set: Antibacterial activity against […] Acinetobacter baumannii clinical isolate 43 assessed as bacterial growth inhibition by CLSI protocol based assay. It is filed as functional.
A further data set concerns Staphylococcus aureus. The experiment in a line: Antibacterial activity against Staphylococcus aureus ATCC 29213 assessed as bacterial growth inhibition by CLSI protocol based assay. It is filed as functional.
Data set [7] can be described thus: Protein binding in human plasma by equilibrium dialysis assay. As to conditions: read-out: PPB (converted). It is filed as ADME, cell-free.
The nature of data set [8]: Intrinsic clearance in human liver microsomes in presence of NADPH and measured upto 45 mins. It is filed as ADME, Microsome. As to conditions: read-out: CLH.
The target in data set [9] is DNA topoisomerase 2-alpha (Homo sapiens, UniProt P11388). Nature of the data set: Inhibition of human topoisomerase 2 assessed as reduction in decatenation.
Sequence of DNA topoisomerase 2-alpha (P11388 whole entry): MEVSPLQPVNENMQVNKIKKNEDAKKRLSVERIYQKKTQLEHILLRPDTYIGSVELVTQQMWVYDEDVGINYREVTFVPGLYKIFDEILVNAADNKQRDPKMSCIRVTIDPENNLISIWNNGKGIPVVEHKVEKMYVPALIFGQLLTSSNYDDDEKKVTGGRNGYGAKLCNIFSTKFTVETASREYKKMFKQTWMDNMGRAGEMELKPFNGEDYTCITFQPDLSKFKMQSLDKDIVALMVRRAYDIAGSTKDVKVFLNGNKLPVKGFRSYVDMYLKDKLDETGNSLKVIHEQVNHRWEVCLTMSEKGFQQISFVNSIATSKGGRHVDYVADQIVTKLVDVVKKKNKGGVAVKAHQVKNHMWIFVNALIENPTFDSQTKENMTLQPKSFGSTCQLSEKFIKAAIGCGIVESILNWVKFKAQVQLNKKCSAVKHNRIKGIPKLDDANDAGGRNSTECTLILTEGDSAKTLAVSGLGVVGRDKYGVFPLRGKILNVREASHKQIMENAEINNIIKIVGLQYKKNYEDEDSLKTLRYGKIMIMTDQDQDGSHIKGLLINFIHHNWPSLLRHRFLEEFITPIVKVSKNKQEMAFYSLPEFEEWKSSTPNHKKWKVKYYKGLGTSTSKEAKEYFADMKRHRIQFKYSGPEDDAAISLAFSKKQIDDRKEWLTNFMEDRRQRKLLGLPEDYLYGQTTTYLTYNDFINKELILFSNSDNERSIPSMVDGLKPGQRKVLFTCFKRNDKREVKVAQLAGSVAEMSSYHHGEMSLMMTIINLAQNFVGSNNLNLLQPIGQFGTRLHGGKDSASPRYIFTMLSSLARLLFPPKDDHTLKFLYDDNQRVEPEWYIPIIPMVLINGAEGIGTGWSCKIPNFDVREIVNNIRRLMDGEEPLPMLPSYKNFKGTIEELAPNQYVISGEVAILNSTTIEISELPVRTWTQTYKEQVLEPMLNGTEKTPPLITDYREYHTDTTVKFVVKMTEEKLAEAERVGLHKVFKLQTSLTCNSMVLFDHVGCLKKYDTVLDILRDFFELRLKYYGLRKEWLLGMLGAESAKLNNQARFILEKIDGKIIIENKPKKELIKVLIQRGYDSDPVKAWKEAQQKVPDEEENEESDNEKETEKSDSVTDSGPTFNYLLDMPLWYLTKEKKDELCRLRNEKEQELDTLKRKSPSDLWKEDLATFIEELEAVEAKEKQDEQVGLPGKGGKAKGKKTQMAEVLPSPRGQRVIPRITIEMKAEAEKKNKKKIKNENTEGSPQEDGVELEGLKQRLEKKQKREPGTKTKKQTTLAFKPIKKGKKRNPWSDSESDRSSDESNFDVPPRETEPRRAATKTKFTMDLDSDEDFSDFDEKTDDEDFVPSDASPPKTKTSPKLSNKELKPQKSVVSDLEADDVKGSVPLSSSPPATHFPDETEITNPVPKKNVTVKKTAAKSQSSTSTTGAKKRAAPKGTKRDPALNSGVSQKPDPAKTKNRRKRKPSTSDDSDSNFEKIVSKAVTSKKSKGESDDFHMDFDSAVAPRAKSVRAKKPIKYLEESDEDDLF
Data set [10] has as its system Acinetobacter baumannii. Nature of the data set: In vivo antibacterial activity against multidrug resistant Acinetobacter baumannii NCTC 13420 infected in mouse thigh infection model assessed as log change in bacterial burden at 30 mg/kg, sc administered at 1 hr post infection and measured after 8 hrs relative to control. The data set is classed as functional.
Data set [11] deals with Klebsiella pneumoniae. The experiment in a line: Antibacterial activity against Klebsiella pneumoniae clinical isolate 42 assessed as bacterial growth inhibition by CLSI protocol based assay. The data set is classed as functional.
Data set [12] concerns Escherichia coli. The experiment in a line: Resistance development in Escherichia coli ATCC25922 assessed as spontaneous resistance frequency at 4 times MIC by resistance development assay. It is filed as functional.
Data set [13] concerns Acinetobacter baumannii. The experiment in a line: In vivo antibacterial activity against multidrug resistant Acinetobacter baumannii NCTC 13420 infected in mouse thigh infection model assessed in reduction in bacterial burden at 60 mg/kg, sc administered at 1 hr post infection and measured after 8 hrs (reference value: 5.4 log10CFU/g). The data set is classed as functional.

The target of data set [14] is Voltage-gated inwardly rectifying potassium channel KCNH2 (Homo sapiens, UniProt Q12809). The experiment in a line: Inhibition of human ERG by Ionworks electrophysiology assay. The data set is classed as toxicity. For orientation: In patch-clamp work, channel activity is measured electrically.
Sequence of Voltage-gated inwardly rectifying potassium channel KCNH2 (Q12809 whole entry): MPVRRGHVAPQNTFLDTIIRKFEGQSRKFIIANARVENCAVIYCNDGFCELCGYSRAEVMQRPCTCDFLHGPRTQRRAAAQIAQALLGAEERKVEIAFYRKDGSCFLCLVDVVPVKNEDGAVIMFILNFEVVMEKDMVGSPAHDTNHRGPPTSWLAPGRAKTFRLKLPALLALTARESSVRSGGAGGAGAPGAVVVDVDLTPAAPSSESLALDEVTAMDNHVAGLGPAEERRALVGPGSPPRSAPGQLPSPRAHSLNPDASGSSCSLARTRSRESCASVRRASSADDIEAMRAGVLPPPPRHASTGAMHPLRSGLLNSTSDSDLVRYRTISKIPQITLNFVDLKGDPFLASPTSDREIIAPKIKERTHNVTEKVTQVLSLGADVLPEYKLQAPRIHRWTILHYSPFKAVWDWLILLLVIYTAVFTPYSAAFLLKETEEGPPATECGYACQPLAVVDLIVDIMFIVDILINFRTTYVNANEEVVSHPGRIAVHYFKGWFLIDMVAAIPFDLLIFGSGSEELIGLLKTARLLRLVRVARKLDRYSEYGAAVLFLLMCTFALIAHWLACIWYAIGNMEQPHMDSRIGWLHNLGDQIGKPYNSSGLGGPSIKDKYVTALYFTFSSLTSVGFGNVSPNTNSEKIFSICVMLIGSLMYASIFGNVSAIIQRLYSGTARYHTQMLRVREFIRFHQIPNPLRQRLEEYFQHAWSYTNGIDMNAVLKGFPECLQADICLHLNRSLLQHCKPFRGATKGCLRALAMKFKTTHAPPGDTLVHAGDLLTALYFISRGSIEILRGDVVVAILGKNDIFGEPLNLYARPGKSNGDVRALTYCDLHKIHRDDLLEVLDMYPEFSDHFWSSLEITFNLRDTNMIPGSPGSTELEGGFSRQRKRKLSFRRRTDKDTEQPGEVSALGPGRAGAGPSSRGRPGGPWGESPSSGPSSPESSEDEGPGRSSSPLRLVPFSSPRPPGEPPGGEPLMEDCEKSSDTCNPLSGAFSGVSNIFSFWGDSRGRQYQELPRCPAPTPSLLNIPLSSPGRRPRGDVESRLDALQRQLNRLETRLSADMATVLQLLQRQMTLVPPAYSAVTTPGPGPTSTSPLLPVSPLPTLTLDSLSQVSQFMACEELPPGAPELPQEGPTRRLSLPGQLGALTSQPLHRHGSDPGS
The nature of data set [15]: Protein binding in mouse plasma by equilibrium dialysis assay. It is filed as ADME, cell-free. Background: In equilibrium dialysis free small molecules cross a membrane that holds back macromolecules.
Data set [16] relates to Klebsiella pneumoniae. The experiment in a line: Antibacterial activity against Klebsiella pneumoniae ATCC 700603 assessed as bacterial growth inhibition by CLSI protocol based assay. The data set is classed as functional.
The subject of data set [17] is Acinetobacter baumannii. Nature of the data set: In vivo antibacterial activity against multidrug resistant Acinetobacter baumannii NCTC 13420 infected in mouse thigh infection model assessed in reduction in bacterial burden at 45 mg/kg, sc administered at 1 hr post infection and measured after 8 hrs (reference value: 5.4 log10CFU/g). It is filed as functional.
Data set [18] can be described thus: Intrinsic clearance in mouse liver microsomes in presence of NADPH and measured upto 45 mins. The note with it: read-out: CLH. The data set is classed as ADME, Microsome. A general note: Liver microsomes are vesicles of endoplasmic reticulum, rich in cytochrome P450 enzymes.
Data set [19] deals with Escherichia coli. The experiment in a line: Antibacterial activity against Escherichia coli clinical isolate 42 assessed as bacterial growth inhibition by CLSI protocol based assay. The data set is classed as functional.
The target of another data set is DNA gyrase (Escherichia coli, UniProt P0AES4+P0AES6). The experiment in a line: Inhibition of Escherichia coli DNA gyrase supercoiling activity. It is filed as protein-complex assay.
Data set [20] has as its system Acinetobacter baumannii. The experiment in a line: In vivo antibacterial activity against multidrug resistant Acinetobacter baumannii NCTC 13420 infected in mouse thigh infection model assessed in reduction in bacterial burden at 120 mg/kg, sc administered at 1 hr post infection and measured after 8 hrs (reference value: 5.4 log10CFU/g). The data set is classed as functional.

For the next data set, the system named is Enterobacter cloacae. Nature of the data set: Antibacterial activity against Enterobacter cloacae clinical isolate 41 assessed as bacterial growth inhibition by CLSI protocol based assay. The data set is classed as functional.
Data set [21] relates to Escherichia coli. Nature of the data set: Antibacterial activity against Escherichia coli ATCC25922 assessed as bacterial growth inhibition by CLSI protocol based assay. The data set is classed as functional.
The subject of data set [22] is Acinetobacter baumannii. Nature of the data set: In vivo antibacterial activity against multidrug resistant Acinetobacter baumannii NCTC 13420 infected in mouse thigh infection model assessed in reduction in bacterial burden at 30 mg/kg, sc administered at 1 hr post infection and measured after 8 hrs (reference value: 5.4 log10CFU/g). The data set is classed as functional.

Data set [23] in a line: Inhibition of Escherichia coli topoisomerase 4 assessed as reduction in decatenation.
The nature of data set [24]: Kinetic solubility of compound. It is filed as physicochemical. The note with it: read-out: Kinetic_solubility.
The subject of data set [25] is Escherichia coli. The experiment in a line: Antibacterial activity against Escherichia coli N43 assessed as bacterial growth inhibition by CLSI protocol based assay. The data set is classed as functional.
Data set [26] relates to Acinetobacter baumannii. The experiment in a line: In vivo antibacterial activity against multidrug resistant Acinetobacter baumannii NCTC 13420 infected in mouse thigh infection model assessed as log change in bacterial burden at 60 mg/kg, sc administered at 1 hr post infection and measured after 8 hrs relative to control. It is filed as functional.
Data set [27] has as its system Escherichia coli. Nature of the data set: Antibacterial activity against Escherichia coli W4573 assessed as bacterial growth inhibition by CLSI protocol based assay. The data set is classed as functional.
Data set [28] is described as follows: Cytotoxicity against human HepG2 cells assessed as reduction in cell viability for 24 hrs by Celltiter-Glo assay. It is filed as toxicity, cell-based.
Data set [29] concerns Acinetobacter baumannii. The experiment in a line: Antibacterial activity against Acinetobacter baumannii NCTC 13420 assessed as bacterial growth inhibition by CLSI protocol based assay. The data set is classed as functional.
Data set [30] deals with Acinetobacter baumannii. Nature of the data set: In vivo antibacterial activity against multidrug resistant Acinetobacter baumannii NCTC 13420 infected in mouse thigh infection model assessed as log change in bacterial burden at 45 mg/kg, sc administered at 1 hr post infection and measured after 8 hrs relative to control. The data set is classed as functional.
Data set [31] has as its system Acinetobacter baumannii. The experiment in a line: In vivo antibacterial activity against multidrug resistant Acinetobacter baumannii NCTC 13420 infected in mouse thigh infection model assessed as log change in bacterial burden at 120 mg/kg, sc administered at 1 hr post infection and measured after 8 hrs relative to control. It is filed as functional.
Data set [32] in a line: Plasma protein binding in mouse assessed as free fraction by equilibrium dialysis assay. The data set is classed as ADME, cell-free.

Consider `CN(C)c1cc(NC(=O)CNC(C)(C)C)c(O)c2c1C[C@H]1C[C@H]3[C@H](N(C)C)C(O)=C(C(N)=O)C(=O)[C@@]3(O)C(O)=C1C2=O` [TIGECYCLINE], for which the Activity in the data set on Acinetobacter baumannii [1] is listed as -1.2 log10CFU/g; in the data set on Acinetobacter baumannii [2] it was 4.2 log10CFU/g.
As to `COc1ccc2ccc(=O)n(CCN[C@H]3CC[C@H]4[C@H](C3)OC(=O)N4c3ccc4c(n3)NC(=O)CO4)c2n1`, the MIC90 amounted to 4 µg/mL (≈ 7.9 µM) with Pseudomonas aeruginosa [3]; 0.5 µg/mL (≈ 0.987 µM) in the data set with Acinetobacter baumannii [6]; 4 µg/mL (≈ 7.9 µM) in the data set on Klebsiella pneumoniae [11]; 1 µg/mL (≈ 1.97 µM) with Escherichia coli [19]; 4 µg/mL (≈ 7.9 µM) in the data set on Enterobacter cloacae. Besides, the MIC was 1 µg/mL (≈ 1.97 µM) with Pseudomonas aeruginosa [4]; 0.008 µg/mL (≈ 0.0158 µM) in the data set on Staphylococcus aureus; 4 µg/mL (≈ 7.9 µM) in the data set on Klebsiella pneumoniae [16]; 0.06 µg/mL (≈ 0.118 µM) in the data set with Escherichia coli [21]; less than 0.008 µg/mL with Escherichia coli [25]; 0.12 µg/mL (≈ 0.237 µM) in the data set with Escherichia coli [27]. Moreover, the MIC with Acinetobacter baumannii [29] was 0.03 µg/mL (≈ 0.0592 µM). Besides, the logD in [5] was 1.95. Further, the fraction unbound in [7] is 0.856. Further, the microsomal CLint in data set [8] is 110 µL/min/mg; in [18], 264 µL/min/mg. In addition, the IC50 in data set [9] was 14400 nM; in data set [14] it was 5000 nM; on DNA gyrase, 55 nM; in [23], 10 nM. The Activity in the data set with Acinetobacter baumannii [10] is 1.7 log10CFU/g; with Escherichia coli [12] it was <2.4 10^-9No_unit; with Acinetobacter baumannii [13], 4.4 log10CFU/g; in the data set on Acinetobacter baumannii [17], 6.6 log10CFU/g; in the data set on Acinetobacter baumannii [20] it was 3.9 log10CFU/g; in the data set on Acinetobacter baumannii [22] it was 7.1 log10CFU/g. For the same compound, the Activity with Acinetobacter baumannii [26] was -1 log10CFU/g; in the data set with Acinetobacter baumannii [30], 1.2 log10CFU/g; in the data set on Acinetobacter baumannii [31] it was -1.5 log10CFU/g. Also, the PPB in [15] turned out to be 15.8%. Moreover, in data set [24], the solubility kinetic was determined as 76 µM (≈ 38.5 µg/mL). For the same compound, the IC50 at 24 h in data set [28] is greater than 64 µg/mL. Also, in data set [32], the Fu came out at 15%.
